The values that follow come from patent US6429204B1, “Method of inhibiting cancer growth” (University of Miami, priority 1997, dated 2002).

Converted amounts (≈) assume the structure as drawn. “And” between values parts separate entries of the source, which are not always exact repeats. Identical values can stand only once.

One data set deals with TSU-PR1 cells. Description: Matrigel invasion assay (Boyden chamber, MTT), TSU-PR1. In kind it is cell-based, human. The conditions noted are these: Homo sapiens; for IC50: TSU-PR1, 48 hr, read-out: 50% inhibitory dose (IC50), Matrigel invasion. On the procedure:
In this method, 4×10^5 tumor cells were plated on the top chamber of the Boyden chemotaxis assay chambers (Costar Transwell plates). The bottom side of the chamber was a 12 μm-pore polycarbonate filter layered with 0.5 mm thick layer of Matrigel. The bottom well contained a chemoattractant, a serum-free culture-conditioned medium from FHS 733 cells, a line of human fetal lung fibroblasts (ATCC No. HTB-157). Cancer cells (4×10^5) were plated in the top wells of the plates. Doxycycline or CMTs were diluted in a serum-free medium to 5 μg/mL, and were added to both top and bottom chambers. […] After 48 hr incubation, MTT was added to both the top and bottom wells (0.5 mg/mL), and incubation was continued for 4 hr. Wells were then emptied, and the cells from the undersides of the filter were pooled with those in the bottom wells with a filter tip. The reduced MTT (formazan) from top and bottom wells was solubilized with DMSO overnight, and absorbance (O.D.) at 515 nm was measured. The ratio of the O.D. from the bottom wells to that of the total (i.e., O.D. of top plus bottom wells) was taken as the invasive potential. […] The MTT assay procedure also normalizes the coincident inhibition due to the cytotoxic effects of the agents under investigation. Results presented are from three independent experiments.

The subject of a further data set is C8161 cells. Description: C8161 cell proliferation (doubling time). Particulars: 50 μg/mL; for Doubling Time: on plastic, DMSO 22 hr. It is filed as cell-based, human. The method, then: Cell Culture and Maintenance: C8161 cells, a human melanoma cell line, were maintained in Dulbecco's modified Eagle's medium (DMEM; […] These cells were routinely screened for Mycoplasma contamination using the GenProbe Rapid Detection System (Fisher Scientific; Chicago, Ill.). Chemically Modified Tetracyclines: Fresh stock solutions of the chemically modified tetracycline compounds (2 mg/mL) were prepared for each experiment by hydrating in 2% dimethyl sulfoxide (DMSO)/water pH 10, then adjusting to pH 7.4 using 1.0 M HCl. […] Sigma Chem. Co.; control) or 50 μg/mL of doxycycline or the other CMTs (three wells on each plate per compound). […] The doubling time for C8161 cells in the presence of each compound was then determined and compared to the DMSO treated cells (control).

Data set [1] is described as follows: MTS cytotoxicity assay, COLO 205. The conditions noted are these: human, COLO 205 colon carcinoma cells, percent cytotoxicity, two days. (In general: Tetrazolium dyes change colour on reduction, which living cells bring about.)
Data set [2] relates to activation of MMPs by p-aminophenyl mercuric acetate. Description: Inhibition of APMA activation of MMPs in processed conditioned medium. In kind it is biochemical. The method, then:
In addition, the ability of doxycycline or CMT-3 to inhibit APMA activation of MMPs was tested. Processed culture-conditioned medium was incubated with the drugs for 1 hr before adding 1 mM APMA, and the incubation was continued thereafter for 2 hr. ^3H-gelatin was then added and the assy was continued for 4 hr. All assays were performed in duplicate tubes, and repeated at least twice.
MMP activity in the culture media was examined at 1 mM and 10 mM CaCl2, with no change in [Zn^2+] in the assay buffer. We employed 1 mM CaCl2, as this concentration is closer to physiological concentration, and 10 mM CaCl2, as it is reported to be the optimum concentration in in vitro assays (Woessner 1991). As is shown in Table 2, both CMT-3 and doxycycline inhibited in vitro activated gelatinases.

A further data set has as its target T1, Gelatinase A (Homo sapiens, UniProt P08253).
T1 construct: endogenous in cells; host or cells: C8161
T1 sequence (P08253 110-660): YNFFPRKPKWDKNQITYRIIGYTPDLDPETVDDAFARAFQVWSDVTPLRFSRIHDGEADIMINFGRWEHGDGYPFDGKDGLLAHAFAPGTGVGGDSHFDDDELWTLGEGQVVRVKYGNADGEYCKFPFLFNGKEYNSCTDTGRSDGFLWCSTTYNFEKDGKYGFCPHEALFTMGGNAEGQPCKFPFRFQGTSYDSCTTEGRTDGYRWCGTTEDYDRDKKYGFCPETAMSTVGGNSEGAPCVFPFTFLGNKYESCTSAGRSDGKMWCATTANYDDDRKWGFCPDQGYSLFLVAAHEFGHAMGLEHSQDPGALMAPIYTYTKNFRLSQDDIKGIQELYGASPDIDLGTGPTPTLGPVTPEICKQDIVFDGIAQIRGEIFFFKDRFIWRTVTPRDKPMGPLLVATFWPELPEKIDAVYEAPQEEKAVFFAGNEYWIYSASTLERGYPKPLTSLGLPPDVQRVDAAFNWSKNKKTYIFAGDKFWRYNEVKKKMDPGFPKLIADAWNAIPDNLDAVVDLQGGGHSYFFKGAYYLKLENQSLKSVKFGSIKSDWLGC
Description: Zymography with densitometry of C8161 conditioned medium, gelatinase A. In kind it is cell-based. Particulars: 50 μg/mL, 24 hr. On the procedure: Six hundred thousand (6×10^5) C8161 cells were seeded per well in a 12-well dish coated with a laminin/collagen IV/gelatin matrix in DMEM plus Mito+ and 0.1% gentamicin sulfate. After approximately 1 hr incubation to allow the cells to attach, 50 μg/mL of either doxycycline or one of the other CMTs was added per well and the dish then placed in a 37° C. humidified 5% CO2 incubator. After 24 hr, the supernatants were removed and centrifuged to remove any cells or debris. One volume of Laemmli sample buffer minus reductant was added to two volumes of the medium, and this sample electrophoresed without prior heating or boiling on a 10% SDS-PAGE containing 0.1% gelatin (samples normalized based on the same number of cells per volume of medium per time of incubation). After electrophoresis, the gels were washed with gentle shaking at room temperature for 30 min in 50 mM Tris-HCl (pH 7.5) plus 2.5% TRITON® X100 plus 50 μg/mL of the corresponding CMT used in the original treatment. The gel was then placed in incubation buffer (50 mM Tris-Cl/10 mM CaCl2/150 mM NaCl/0.05% NaN3) also containing 50 μg/mL of the corresponding CMT, and incubated at 37° C. for 20-24 hr. The gels were stained with Coomassie BBR-250, then destained with 10% methanol/10% acetic acid in water until the wash remained clear. A photographic negative of the gel was digitized using a video camera and Snappy Video Snapshot system (Play Inc., Rancho Cordova, Calif.). An integrated density was determined for each of the cleared zones of proteolysis using the software ImagePC8α (freely available from the National Institutes of Health), and the corresponding changes in gelatinolytic activities reported compared to the control samples normalized to a value of 1.0.

The subject of a further data set is E-10 Cells. Description: MTS cytotoxicity assay, E-10. The conditions noted are these: two days.

Description for E-10 Cells: A panel of chemically modified tetracycline compounds and doxycycline were tested for cytotoxicity against two carcinomas: COLO 205 (a human colon carcinoma-derived cell line) and the E-10 clone of MDA-MB-231 (a human breast carcinoma-derived cell line). Cytoxicity was measured using a conventional assay for viability with a tetrazolium salt (MTS). Cells were grown in media containing the CMTs at concentrations ranging from 5 μM to 100 μM for two days. The cells were then incubated with the MTS for several hours before removal of the supernatant medium for determination of formazan, which is generated only by the viable cells. Results are expressed as percent cytotoxicity, which is simply the percent decline in measured formazan concentration in the sampled medium.

Consider `C[C@H]1c2cccc(O)c2C(=O)C2=C(O)[C@]3(O)C(=O)C(C(N)=O)=C(O)[C@@H](N(C)C)[C@@H]3[C@@H](O)[C@@H]21` [Doxycycline, 6α-deoxy-5-hydroxy-tetracycline, reference compound], for which, in the data set with TSU-PR1 cells (TSU-PR1, 5 μg/mL, 48 hr), the inhibition at 5 µg/mL stood at 8 ± 1.8%. Also, the IC50 in the data set with TSU-PR1 cells is 27 ± 4.3 µg/mL (≈ 60.8 µM). The “Doubling Time” value in the data set with C8161 cells turned out to be 22 h. Also, in data set [1], the cytotoxicity at 2 days, 5 µM was 0%; the cytotoxicity at 2 days, 10 µM was 0%; the cytotoxicity at 2 days, 20 µM was 45.7%; the cytotoxicity at 2 days, 50 µM stood at 58.8%. Moreover, the cytotoxicity at 2 days, 100 µM in data set [1] was found to be 66.5%.

Turning to `NC(=O)C1=C(O)CC2CC3Cc4cccc(O)c4C(=O)C3=C(O)C2(O)C1=O` (stereo not drawn) [CMT-3, 6-demethyl-6-deoxy-4-de(dimethylamino)tetracycline], in data set [2] (10 mM CaCl2), the “IC50, inhibition of activation of MMPs by APMA” value was 1.0 µg/mL. The same compound displayed an IC50 in data set [2] (10 mM CaCl2, value in brackets) of 2200 nM. The IC50 in the data set on TSU-PR1 cells was determined as 1.7 ± 0.31 µg/mL (≈ 4.58 µM). The “Doubling Time” value in the data set with C8161 cells stood at 28 h. Moreover, the “increase of doubling time” value with C8161 cells (versus DMSO) is given as roughly 27%. Moreover, the “Gelatinase A, integrated density normalized to control 1.00” value on Gelatinase A is 0.22. This compound had a percent cytotoxicity with E-10 Cells (10 μM) of 1.8%. In addition, in the data set on E-10 Cells (20 μM), the percent cytotoxicity is 4.15% and 8.5%. In data set [1], this compound had a cytotoxicity at 2 days, 5 µM of 17%; a cytotoxicity at 2 days, 10 µM of 28.8%; a cytotoxicity at 2 days, 20 µM of 52%; a cytotoxicity at 2 days, 50 µM of 79%. For the same compound, the cytotoxicity at 2 days, 100 µM in data set [1] was 85.6%.

As a reminder, the inhibition is how much of the control response was suppressed. Low values mean little suppression, high ones strong suppression. For orientation: IC50 means the concentration that inhibits the measured activity by half.
